Laboratory results taken from ChEMBL document CHEMBL6134780, “Halogenated retinoid derivatives as dual RARα and RXRα modulators for treating acute promyelocytic leukemia cells” (Eur J Med Chem, 2024).
Activity calls are given as the source filed them. The rule behind the calls is not given here.

Experiments:
K562 [1] = assay: Induction of cell differentiation in human K562 cells at 0.5 uM incubated for 6 days by CD11b staining based flow cytometric analysis; assay type: functional; details: time 6.0 day
[2] = target: T1, Retinoic acid receptor RXR-gamma (Homo sapiens) (UniProt P48443); assay: Competitive binding affinity to Gal4-fused full length RXRgamma LBD (unknown origin) transfected in HEK293T cells co-transfected with pG5luc reporter and Renilla-luc at 0.1 to 1 uM incubated for 12 hrs in presence of ATRA by luciferase reporter gene assay; assay type: cell-based; details: dose 0.1-1 µM
T1 sequence (whole entry): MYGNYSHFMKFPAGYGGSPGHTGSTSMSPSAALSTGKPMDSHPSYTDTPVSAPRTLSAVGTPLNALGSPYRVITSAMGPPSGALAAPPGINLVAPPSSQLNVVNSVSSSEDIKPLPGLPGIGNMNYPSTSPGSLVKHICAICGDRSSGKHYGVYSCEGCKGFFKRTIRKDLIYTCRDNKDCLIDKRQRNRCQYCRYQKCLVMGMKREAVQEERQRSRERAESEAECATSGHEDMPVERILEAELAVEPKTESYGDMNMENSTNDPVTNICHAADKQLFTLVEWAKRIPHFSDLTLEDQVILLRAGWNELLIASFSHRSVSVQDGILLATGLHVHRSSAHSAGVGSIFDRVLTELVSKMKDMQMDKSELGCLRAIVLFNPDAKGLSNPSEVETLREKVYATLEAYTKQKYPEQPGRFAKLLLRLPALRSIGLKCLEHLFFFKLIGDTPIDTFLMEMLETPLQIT

K562 [3] = assay: Induction of apoptosis in human K562 cells assessed as necrotic cells at 1 uM incubated for 24 hrs by Annexin V-FITC/PI staining based flow cytometric analysis (reference value: 2.19 %); assay type: functional
ATRA-resistant NB4-LR2 [4] = assay: Induction of mitosis in human ATRA-resistant NB4-LR2 cells assessed as upregulation of pS10-histone expression at 2 uM measured after 3 hrs by Western blot analysis; assay type: functional, cell-based
[5] = target: T2, Retinoic acid receptor RXR-beta (Homo sapiens) (UniProt P28702); assay: Competitive binding affinity to Gal4-fused full length RXRbeta LBD (unknown origin) transfected in HEK293T cells co-transfected with pG5luc reporter and Renilla-luc assessed as inhibition of 9-cis-RA induced transactivation at 0.1 to 1 uM incubated for 12 hrs by luciferase reporter gene assay; assay type: cell-based; details: dose 0.1-1 µM
T2 sequence (whole entry): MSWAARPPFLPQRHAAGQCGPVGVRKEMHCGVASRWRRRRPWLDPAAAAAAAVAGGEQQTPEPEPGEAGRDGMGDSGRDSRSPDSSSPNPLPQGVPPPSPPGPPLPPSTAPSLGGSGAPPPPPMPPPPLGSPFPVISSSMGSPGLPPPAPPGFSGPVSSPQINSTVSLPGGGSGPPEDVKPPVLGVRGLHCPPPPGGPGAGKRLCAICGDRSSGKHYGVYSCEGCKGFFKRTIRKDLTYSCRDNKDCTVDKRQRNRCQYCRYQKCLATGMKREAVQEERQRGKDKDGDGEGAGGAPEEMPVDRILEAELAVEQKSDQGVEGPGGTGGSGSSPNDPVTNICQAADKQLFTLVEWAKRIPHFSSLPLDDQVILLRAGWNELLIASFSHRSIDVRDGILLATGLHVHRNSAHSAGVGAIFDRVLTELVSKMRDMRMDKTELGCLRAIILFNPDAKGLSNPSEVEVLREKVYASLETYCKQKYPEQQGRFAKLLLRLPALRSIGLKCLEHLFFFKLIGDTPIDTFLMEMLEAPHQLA

NB-4 [6] = assay: Cell cycle arrest in human NB4 cells assessed as increase in PLK1 expression at 2 uM incubated for 3 to 24 hrs by Western blot analysis; assay type: functional, cell-based; details: time 3-24 hrs
HEK293T = assay: Agonist activity at full length RARalpha LBD R276E mutant (unknown origin) transfected in HEK293T cells co-transfected with pG5luc reporter and Renilla-luc at 1 uM incubated for 12 hrs by luciferase reporter gene assay; assay type: cell-based; details: Homo sapiens
[7] = Induction of apoptosis in human ATRA-resistant NB4-LR2 cells assessed as early apoptotic cells at 1 uM incubated for 24 hrs by Annexin V-FITC/PI staining based flow cytometric analysis (reference value: 5.38 %); assay type: functional
NB-4 [8] = assay: Induction of apoptosis in human NB4 cells assessed as viable cells at 1 uM incubated for 24 hrs by Annexin V-FITC/PI staining based flow cytometric analysis (reference value: 92.36 %); assay type: functional; details: read-out: Activity
[9] = target: T2, Retinoic acid receptor RXR-beta (Homo sapiens); assay: Competitive binding affinity to Gal4-fused full length RXRbeta LBD (unknown origin) transfected in HEK293T cells co-transfected with pG5luc reporter and Renilla-luc at 0.1 to 1 uM incubated for 12 hrs in presence of ATRA by luciferase reporter gene assay; assay type: cell-based; details: dose 0.1-1 µM
K562 [10] = assay: Induction of apoptosis in human K562 cells assessed as late apoptotic cells at 1 uM incubated for 24 hrs by Annexin V-FITC/PI staining based flow cytometric analysis (reference value: 5.98 %); assay type: functional
K562 [11] = assay: Induction of apoptosis in human K562 cells assessed as early apoptotic cells at 2 uM incubated for 24 hrs by Annexin V-FITC/PI staining based flow cytometric analysis (reference value: 0.91 %); assay type: functional
[12] = target: T1, Retinoic acid receptor RXR-gamma (Homo sapiens); assay: Agonist activity at Gal4-fused full length RXRgamma LBD (unknown origin) transfected in HEK293T cells co-transfected with pG5luc reporter and Renilla-luc at 0.1 to 1 uM incubated for 12 hrs by luciferase reporter gene assay; assay type: cell-based; details: dose 0.1-1 µM
K562 [13] = assay: Induction of apoptosis in human K562 cells assessed as early apoptotic cells at 1 uM incubated for 24 hrs by Annexin V-FITC/PI staining based flow cytometric analysis (reference value: 0.91 %); assay type: functional
ATRA-resistant NB4-LR2 [14] = assay: Cell cycle arrest in human ATRA-resistant NB4-LR2 cells assessed as increase in cyclin B1 expression at 2 uM incubated for 3 to 24 hrs by Western blot analysis; assay type: functional, cell-based; details: time 3-24 hrs
K562 [15] = assay: Induction of apoptosis in human K562 cells assessed as viable cells at 2 uM incubated for 24 hrs by Annexin V-FITC/PI staining based flow cytometric analysis (reference value: 90.02 %); assay type: functional; details: read-out: Activity
NB-4 [16] = assay: Induction of mitosis in human NB4 cells assessed as upregulation of pS10-histone expression at 2 uM measured after 3 hrs by Western blot analysis; assay type: functional, cell-based
ATRA-resistant NB4-LR2 [17] = assay: Induction of DNA damage in human ATRA-resistant NB4-LR2 cells assessed as increase in gamma-H2AX expression at 2 uM by Western blot analysis; assay type: functional, cell-based
NB-4 [18] = assay: Cell cycle arrest in human NB4 cells assessed as accumulation of cells at G0/G1 phase at 0.5 uM incubated for 6 days for DAPI staining based flow cytometric analysis (reference value: 52 %); assay type: functional; details: time 6 day
NB-4 [19] = assay: Induction of cell death in M phase synchronized human NB4 cells assessed as reduction in mitotic cells at 0.5 uM preincubated for 4 days followed by release from thymidine block for 10 hrs by immunofluorescence staining based analysis; assay type: functional; details: time 106.0 hrs
[20] = target: Oxysterols receptor LXR-beta (Homo sapiens) (UniProt P55055); assay: Agonist activity at Gal4-fused full length LXRbeta LBD (unknown origin) transfected in HEK293T cells co-transfected with pG5luc reporter and Renilla-luc at 0.1 to 1 uM incubated for 12 hrs by luciferase reporter gene assay; assay type: cell-based; details: dose 0.1-1 µM
Sequence of Oxysterols receptor LXR-beta (Homo sapiens) (P55055 whole entry, the tested form may be a part): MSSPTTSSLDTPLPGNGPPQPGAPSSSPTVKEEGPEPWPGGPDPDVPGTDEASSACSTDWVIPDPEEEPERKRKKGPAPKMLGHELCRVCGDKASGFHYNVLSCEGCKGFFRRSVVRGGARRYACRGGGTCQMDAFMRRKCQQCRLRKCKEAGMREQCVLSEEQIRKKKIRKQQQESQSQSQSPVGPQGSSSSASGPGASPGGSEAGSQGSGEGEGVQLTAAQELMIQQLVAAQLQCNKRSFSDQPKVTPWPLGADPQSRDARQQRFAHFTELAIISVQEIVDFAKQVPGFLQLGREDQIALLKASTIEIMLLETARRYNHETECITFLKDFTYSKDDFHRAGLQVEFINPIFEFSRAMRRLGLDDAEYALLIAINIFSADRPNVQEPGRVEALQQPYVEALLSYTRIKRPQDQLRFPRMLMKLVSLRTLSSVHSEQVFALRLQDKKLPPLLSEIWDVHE

With `Cc1cc2c(cc1C(=O)/C(Br)=C/c1ccc(C(=O)O)cc1)C(C)(C)CCC2(C)C` the Activity (K562 [1]) was “inactive”, the Activity [2] was “Not active; No Significant Competitive Effect On Atra Activation Observed” and the Activity (K562 [3]) was 2.27%. For the same compound, the Activity (ATRA-resistant NB4-LR2 [4]) was “Active”, the Activity [5] was “Weak_effect” and the Activity (NB-4 [6]) was “Active”. For the same compound, the Activity (HEK293T) was “inactive”, the Activity [7] was 29.03% and the viability at 1 µM (NB-4 [8]) was 59.8%. For the same compound, the Activity [9] was “Not active; No Significant Competitive Effect On Atra Activation Observed”, the Activity (K562 [10]) was 7.4% and the Activity (K562 [11]) was 1.18%. The Activity [12] was “Minimal_effect”, the Activity (K562 [13]) was 1% and the Activity (ATRA-resistant NB4-LR2 [14]) was “Active”. For the same compound, the viability at 2 µM (K562 [15]) was 88.6%, the Activity (NB-4 [16]) was “Active” and the Activity (ATRA-resistant NB4-LR2 [17]) was “Active; Dna Damage Detected When Apoptosis Occurred”. For the same compound, the Activity (NB-4 [18]) was 71%, the Activity (NB-4 [19]) was “Active” and the Activity [20] was “Minimal_effect”.

For `Cc1cc2c(cc1C(=O)/C(Br)=C\c1ccc(C(=O)O)cc1)C(C)(C)CCC2(C)C`, the Activity (K562 [1]) was “inactive”, the Activity [2] was “Not active; No Significant Competitive Effect On Atra Activation Observed” and the Activity (K562 [3]) was 2.02%. For the same compound, the Activity (ATRA-resistant NB4-LR2 [4]) was “Active”, the Activity [5] was “Weak_effect” and the Activity (NB-4 [6]) was “Active”. The Activity (HEK293T) was “inactive”, the Activity [7] was 20.24% and the viability at 1 µM (NB-4 [8]) was 76.7%. For the same compound, the Activity [9] was “Not active; No Significant Competitive Effect On Atra Activation Observed”, the Activity (K562 [10]) was 6.86% and the Activity (K562 [11]) was 1.05%. For the same compound, the Activity [12] was “Minimal_effect”, the Activity (K562 [13]) was 0.71% and the Activity (ATRA-resistant NB4-LR2 [14]) was “Active”. For the same compound, the viability at 2 µM (K562 [15]) was 88.8%, the Activity (NB-4 [16]) was “Active” and the Activity (ATRA-resistant NB4-LR2 [17]) was “Active; Dna Damage Detected When Apoptosis Occurred”. For the same compound, the Activity (NB-4 [18]) was 72%, the Activity (NB-4 [19]) was “Active” and the Activity [20] was “Minimal_effect”.
